target: CCR2 (Homo sapiens (Human), UniProt P41597); test: Calcium activity assayed on the FLIPR Tetra in HEK-Gqi5 cells stably expressing CCR2; assay type: cell-based; details: FLIPR Tetra calcium assay
Sequence (P41597 whole entry, species assumed): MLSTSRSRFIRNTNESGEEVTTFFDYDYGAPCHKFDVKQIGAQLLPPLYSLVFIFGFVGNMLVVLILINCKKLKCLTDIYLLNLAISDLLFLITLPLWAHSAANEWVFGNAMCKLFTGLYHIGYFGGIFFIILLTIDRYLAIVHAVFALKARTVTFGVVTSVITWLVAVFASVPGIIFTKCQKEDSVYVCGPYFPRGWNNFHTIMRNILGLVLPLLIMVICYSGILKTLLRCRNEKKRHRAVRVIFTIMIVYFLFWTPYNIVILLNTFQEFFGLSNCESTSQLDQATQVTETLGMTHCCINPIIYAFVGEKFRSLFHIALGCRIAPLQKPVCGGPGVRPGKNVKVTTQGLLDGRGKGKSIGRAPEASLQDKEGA

| Structure (SMILES) | CCR2 % ANTAGONISM | IC50 |
| --- | --- | --- |
| C[S+]([O-])c1ccc(Cl)cc1NS(=O)(=O)c1ccc(C(F)(F)F)c([N+](=O)[O-])c1 (stereo not shown) [N-[5-chloro-2-(methylsulfinyl)phenyl]-3-nitro-4-(trifluoromethyl)benzenesulfonamide] | 97% | 0.054 µM |
| C[S+]([O-])c1ccc(Cl)cc1NS(=O)(=O)c1ccc(I)cc1 (stereo not shown) [N-[5-chloro-2-(methylsulfinyl)phenyl]-4-iodobenzenesulfonamide] | 95% | 0.258 µM |
| CC(C)c1ccc(S(=O)(=O)Nc2cc(Cl)ccc2[S+](C)[O-])cc1 (stereo not shown) [N-[5-chloro-2-(methylsulfinyl)phenyl]-4-isopropylbenzenesulfonamide] | 68% | 0.934 µM |
| Cc1ccc(S(=O)(=O)Nc2cc(Cl)ccc2[S+](C)[O-])cc1[N+](=O)[O-] (stereo not shown) [N-[5-chloro-2-(methylsulfinyl)phenyl]-4-methyl-3-nitrobenzenesulfonamide] | 101% | 0.181 µM |
| Cc1ccc(S(=O)(=O)Nc2cc(Cl)ccc2[S+](C)[O-])o1 (stereo not shown) [N-[5-chloro-2-(methylsulfinyl)phenyl]-5-methylfuran-2-sulfonamide] | 76% | 0.194 µM |
| C[S+]([O-])c1ccc(Cl)cc1NS(=O)(=O)c1ccccc1 (stereo not shown) [N-[5-chloro-2-(methylsulfinyl)phenyl]benzenesulfonamide] | 48% | – |
| C[S+]([O-])c1ccc(Cl)cc1NS(=O)(=O)c1ccco1 (stereo not shown) [N-[5-chloro-2-(methylsulfinyl)phenyl]furan-2-sulfonamide] | 96% | 2.32 µM |
| C[S+]([O-])c1ccc(Cl)cc1NS(=O)(=O)c1cccs1 (stereo not shown) [N-[5-chloro-2-(methylsulfinyl)phenyl]thiophene-2-sulfonamide] | 53% | 1.11 µM |
| CS(=O)(=O)c1ccc(Cl)cc1NS(=O)(=O)c1cc2ccccc2o1 [N-[5-chloro-2-(methylsulfonyl)phenyl]-1-benzofuran-2-sulfonamide] | 93% | 0.042 µM |
| CS(=O)(=O)c1ccc(Cl)cc1NS(=O)(=O)c1ccc(F)cc1F [N-[5-chloro-2-(methylsulfonyl)phenyl]-2,4-difluorobenzenesulfonamide] | 91% | 0.354 µM |
| CS(=O)(=O)c1ccc(Cl)cc1NS(=O)(=O)c1ccc(C(F)(F)F)c([N+](=O)[O-])c1 [N-[5-chloro-2-(methylsulfonyl)phenyl]-3-nitro-4-(trifluoromethyl)benzenesulfonamide] | 97% | 0.213 µM |
| CS(=O)(=O)c1ccc(Cl)cc1NS(=O)(=O)c1ccc(I)cc1 [N-[5-chloro-2-(methylsulfonyl)phenyl]-4-iodobenzenesulfonamide] | 92% | 1.07 µM |
| CC(C)c1ccc(S(=O)(=O)Nc2cc(Cl)ccc2S(C)(=O)=O)cc1 [N-[5-chloro-2-(methylsulfonyl)phenyl]-4-isopropylbenzenesulfonamide] | 0% | – |
| Cc1ccc(S(=O)(=O)Nc2cc(Cl)ccc2S(C)(=O)=O)cc1[N+](=O)[O-] [N-[5-chloro-2-(methylsulfonyl)phenyl]-4-methyl-3-nitrobenzenesulfonamide] | 89% | 0.207 µM |
| Cc1ccc(S(=O)(=O)Nc2cc(Cl)ccc2S(C)(=O)=O)o1 [N-[5-chloro-2-(methylsulfonyl)phenyl]-5-methylfuran-2-sulfonamide] | 90% | 0.99 µM |
| CS(=O)(=O)c1ccc(Cl)cc1NS(=O)(=O)c1ccco1 [N-[5-chloro-2-(methylsulfonyl)phenyl]furan-2-sulfonamide] | 99% | 0.345 µM |
| CSc1ccc(Cl)cc1NS(=O)(=O)c1cc2ccccc2o1 [N-[5-chloro-2-(methylthio)phenyl]-1-benzofuran-2-sulfonamide] | 99% | 0.026 µM |
| CSc1ccc(Cl)cc1NS(=O)(=O)c1ccc(F)cc1F [N-[5-chloro-2-(methylthio)phenyl]-2,4-difluorobenzenesulfonamide] | 87% | – |
| CSc1ccc(Cl)cc1NS(=O)(=O)c1ccc(C(F)(F)F)c([N+](=O)[O-])c1 [N-[5-chloro-2-(methylthio)phenyl]-3-nitro-4-(trifluoromethyl)benzenesulfonamide] | 90% | 0.491 µM |
| CSc1ccc(Cl)cc1NS(=O)(=O)c1ccc(I)cc1 [N-[5-chloro-2-(methylthio)phenyl]-4-iodobenzenesulfonamide] | 71% | 2.03 µM |
| CSc1ccc(Cl)cc1NS(=O)(=O)c1ccc(C)c([N+](=O)[O-])c1 [N-[5-chloro-2-(methylthio)phenyl]-4-methyl-3-nitrobenzenesulfonamide] | 92% | 0.68 µM |
| CSc1ccc(Cl)cc1NS(=O)(=O)c1ccc(C)o1 [N-[5-chloro-2-(methylthio)phenyl]-5-methylfuran-2-sulfonamide] | 77% | 0.07 µM |

| Structure (SMILES) | CCR2 % ANTAGONISM | IC50 |
| --- | --- | --- |
| CSc1ccc(Cl)cc1NS(=O)(=O)c1ccco1 [N-[5-chloro-2-(methylthio)phenyl]furan-2-sulfonamide] | 93% | 0.94 µM |
| CSc1ccc(Cl)cc1NS(=O)(=O)c1cccs1 [N-[5-chloro-2-(methylthio)phenyl]thiophene-2-sulfonamide] | 0% | – |
| Nc1ccccc1C[S+]([O-])c1ccc(Cl)cc1NS(=O)(=O)c1cc2ccccc2o1 (stereo not shown) [N-{2-[(2-aminobenzyl)sulfinyl]-5-chlorophenyl}-1-benzofuran-2-sulfonamide] | 93% | 0.115 µM |
| Nc1ccccc1CS(=O)(=O)c1ccc(Cl)cc1NS(=O)(=O)c1cc2ccccc2o1 [N-{2-[(2-aminobenzyl)sulfonyl]-5-chlorophenyl}-1-benzofuran-2-sulfonamide] | 98% | 0.129 µM |
| Nc1ccccc1CSc1ccc(Cl)cc1NS(=O)(=O)c1cc2ccccc2o1 [N-{2-[(2-aminobenzyl)thio]-5-chlorophenyl}-1-benzofuran-2-sulfonamide] | 91% | 0.1 µM |
| NCC[S+]([O-])c1ccc(Cl)cc1NS(=O)(=O)c1ccc(Cl)c(C(F)(F)F)c1 (stereo not shown) [N-{2-[(2-aminoethyl)sulfinyl]-5-chlorophenyl}-4-chloro-3-(trifluoromethyl)benzenesulfonamide] | 84% | 3.53 µM |
| NCCSc1ccc(Cl)cc1NS(=O)(=O)c1ccc(Cl)c(C(F)(F)F)c1 [N-{2-[(2-aminoethyl)thio]-5-chlorophenyl}-4-chloro-3-(trifluoromethyl)benzenesulfonamide] | 97% | 1.07 µM |
| Nc1cccc(C[S+]([O-])c2ccc(Cl)cc2NS(=O)(=O)c2ccc(F)cc2F)c1 (stereo not shown) [N-{2-[(3-aminobenzyl)sulfinyl]-5-chlorophenyl}-2,4-difluorobenzenesulfonamide] | 99% | 0.443 µM |
| Nc1cccc(C[S+]([O-])c2ccc(Cl)cc2NS(=O)(=O)c2ccc(Cl)cc2F)c1 (stereo not shown) [N-{2-[(3-aminobenzyl)sulfinyl]-5-chlorophenyl}-4-chloro-2-fluorobenzenesulfonamide] | 95% | 0.113 µM |
| Nc1cccc(C[S+]([O-])c2ccc(Cl)cc2NS(=O)(=O)c2ccc(Cl)cc2)c1 (stereo not shown) [N-{2-[(3-aminobenzyl)sulfinyl]-5-chlorophenyl}-4-chlorobenzenesulfonamide] | 99% | 0.159 µM |
| Nc1cccc(C[S+]([O-])c2ccc(Cl)cc2NS(=O)(=O)c2ccccc2)c1 (stereo not shown) [N-{2-[(3-aminobenzyl)sulfinyl]-5-chlorophenyl}benzenesulfonamide] | 62% | 2.56 µM |
| Nc1cccc(C[S+]([O-])c2ccc(F)cc2NS(=O)(=O)c2cc3ccccc3o2)c1 (stereo not shown) [N-{2-[(3-aminobenzyl)sulfinyl]-5-fluorophenyl}-1-benzofuran-2-sulfonamide] | 91% | 0.038 µM |
| COc1ccc([S+]([O-])Cc2cccc(N)c2)c(NS(=O)(=O)c2cc3ccccc3o2)c1 (stereo not shown) [N-{2-[(3-aminobenzyl)sulfinyl]-5-methoxyphenyl}-1-benzofuran-2-sulfonamide] | 100% | 0.085 µM |
| Nc1cccc(C[S+]([O-])c2ccccc2NS(=O)(=O)c2cc3ccccc3o2)c1 (stereo not shown) [N-{2-[(3-aminobenzyl)sulfinyl]phenyl}-1-benzofuran-2-sulfonamide] | 110% | 0.058 µM |
| Nc1cccc(CS(=O)(=O)c2ccc(Cl)cc2NS(=O)(=O)c2ccc(F)cc2F)c1 [N-{2-[(3-aminobenzyl)sulfonyl]-5-chlorophenyl}-2,4-difluorobenzenesulfonamide] | 89% | 0.718 µM |
| Nc1cccc(CS(=O)(=O)c2ccc(Cl)cc2NS(=O)(=O)c2ccc(Cl)cc2F)c1 [N-{2-[(3-aminobenzyl)sulfonyl]-5-chlorophenyl}-4-chloro-2-fluorobenzenesulfonamide] | 96% | 0.248 µM |
| Nc1cccc(CS(=O)(=O)c2ccc(Cl)cc2NS(=O)(=O)c2ccc(Cl)cc2)c1 [N-{2-[(3-aminobenzyl)sulfonyl]-5-chlorophenyl}-4-chlorobenzenesulfonamide] | 99% | 0.421 µM |
| Nc1cccc(CS(=O)(=O)c2ccc(Cl)cc2NS(=O)(=O)c2ccccc2)c1 [N-{2-[(3-aminobenzyl)sulfonyl]-5-chlorophenyl}benzenesulfonamide] | 52% | 1.24 µM |
| Nc1cccc(CS(=O)(=O)c2ccc(F)cc2NS(=O)(=O)c2cc3ccccc3o2)c1 [N-{2-[(3-aminobenzyl)sulfonyl]-5-fluorophenyl}-1-benzofuran-2-sulfonamide] | 90% | 0.022 µM |
| COc1ccc(S(=O)(=O)Cc2cccc(N)c2)c(NS(=O)(=O)c2cc3ccccc3o2)c1 [N-{2-[(3-aminobenzyl)sulfonyl]-5-methoxyphenyl}-1-benzofuran-2-sulfonamide] | 107% | 0.176 µM |
| Nc1cccc(CS(=O)(=O)c2ccccc2NS(=O)(=O)c2cc3ccccc3o2)c1 [N-{2-[(3-aminobenzyl)sulfonyl]phenyl}-1-benzofuran-2-sulfonamide] | 94% | 0.041 µM |
